# Reference: patent US11739053B2, “P62-ZZ chemical inhibitor” (ID4PHARMA, LLC, priority 2011, dated 2023)
# Key:
# [1] = In vivo toxicity, single dose and multidose MTD study
# Protocol: FIG. 10A-D: 10A. Single dose acute toxicity study by Up/Down Methods. Body weights of the mice following dosing. FIG. 10B. Mean body weights of mice during multidose MTD study. Data are shown as mean±SD for 5 mice. FIG. 10C. Median body weight of mice during multidose MTD study. FIG. 10D. Plasma concentrations p62-ZZ antagonist in pilot mice after 100 mg/kg IV.
# Preliminary in vivo studies of the p62-ZZ antagonist #3 were performed 5 to determine the toxicity, multiple doses MTD and plasma concentration of the antagonist given IV. For the pilot PK study the prototype p62-ZZ antagonist (compound #3) was used as an internal standard for Mass spectroscopy assays.
# [2] = test system: MM1.S cells; experiment: Reactive oxygen species detection in MM1.S cells; assay type: cell-based, human; conditions: 10 μM, 6 hours
# Protocol: FIG. 9A-C: 9A. […] MM1.S cells were cultured with 10 μM of p62-ZZ antagonist for the indicated time, and then cell lysates were collected. Caspase 9, 7 and 3 were detected by Western blotting using anti-caspase 9, 7 and 3 specific antibodies (Cell Signaling). FIG. 9B. Detection of Apoptosis using the TUNEL reaction with MM1.S cells treated with p62-ZZ antagonist. MM1.S cells were treated with 10/μM of p62-ZZ antagonist #3 for 24 hours and then the cells were collected and mounted on glass slides using the cytospin procedure. Terminal deoxynucleotidyl transferase nick end labeling (TUNEL) reactions were conducted using an In Situ Cell Death Detection Kit (Roche) according to the manufacturer's instructions. The stained cells were analyzed using a fluorescence microscope equipped with standard green filter. FIG. 9C. The p62-ZZ antagonist induced Reactive Oxygen Species in MM1.S cells. MM1.S cells were treated with 10 μM of p62-ZZ antagonist #3 for 6 hours. Cells were collected and stained for Reactive Oxygen Species (ROS) using a Total ROS detection kit (Enzo) according to the manufacturer's instructions. The expression of apoptosis markers in p62-ZZ antagonist treated on 25 MM cells was determined to determine the mechanism action of this antagonist.
# [3] = test system: human OCL formation; experiment: Human osteoclast (OCL) formation; assay type: cell-based; conditions: various concentrations, 2 weeks, 1 ng/ml TNFα
# Protocol: FIG. 7A-C: 7A. CFU-Blast colony formation. Human CD34(+) cells were cultured with p62-ZZ inhibitor #3 and 1 ng/ml of rhIL-3 IL-6 and SCF for 7 days. Data are shown as the mean±SD (n=5). FIG. 7B. Human OCL formation. Non-adherent mononuclear cells (2.5×10^7 cells/10-cm dish) derived from human bone marrow samples were cultured in α-MEM containing 10% FCS, 100 pg/ml recombinant human GM-CSF(R & D) for 7 days. Then the cells were collected and plated (cell density is 1.0×10^6 cells/nil) in α-MEM containing 20% horse serum with 1 ng/ml TNFα. Half-media changes were performed twice a week containing various concentrations of the p62-ZZ inhibitor #3. The cultures were incubated for a total of 2 weeks at 37° C. with 5% CO2 and 95% humidity. The osteoclasts were stained with the 23C6 antibody which recognizes CD51/61. Data are shown as the mean±SD (n=5). *P<0.01 compared to vehicle treated cultures. 7C. OCL formation by wild type and p62−/− mouse osteoclast precursors. Data is shown as the mean±SD (n=4). *: P<0.01 compared to no-inhibitor cultures. Whether p62-ZZ inhibitor #3 affects hematopoesis since osteoclast precursors are derived from hematopoietic cells was examined. […] Colonies were scored after 7 days of culture using an inverted microscope.
# [4] = test system: MM1.S myeloma cell line; experiment: MM1.S myeloma cell proliferation, MTT assay; assay type: cell-based, human; conditions: 48 h
# Protocol: (§1) FIG. 4A-C: 4A. Effect of p62-ZZ inhibitor #3 on myeloma cell growth. MM cell growth was assayed by MTT assay. Data are shown as mean±SD (n=5). FIG. 4B. MTT assay of CD138(+) primary myeloma cells. Data are shown as mean±SD (n=5). FIG. 4C. Effects of p62-ZZ inhibitors on human stromal cell growth. Primary human stromal cells (5×10^3/well) were cultured with 10 μM of p62-ZZ inhibitor (#1-6) containing 10% FCS in IMDM for 48 hours. Stromal cells growth was assayed by MTT assay. Data are shown as the mean±SD (n=5). *P<0.01 compared to vehicle treated culture. MM1.S (3×10^5 cells/well) or CD138 (+) (1×10^5 cells/well) primary myeloma cells were incubated in 96-well plates in the presence of RPMI-1640-10% FCS and various concentrations of p62-ZZ inhibitor #3 at 37° C. 5% CO2 for 48 h to determine the IC50 for inhibiting myeloma cell proliferation.
# [5] = test system: CD138(+) primary myeloma cells; experiment: CD138(+) primary myeloma cell proliferation, MTT assay; assay type: cell-based, human; conditions: 48 h, FIG. 4B
# Protocol: as §1
structure (smiles),measurement,setting,value
"OCCNCc1ccc(OCc2ccccc2)c(OCc2ccccc2)c1 [Compound 3, 2-[[3,4-bis(phenylmethoxy)phenyl]methylamino]ethanol]",effect on body weight,"[1]; doses up to 100 mg/kg, single dose or qdx5/day, up to 20 days",no effect
same,"gross pathology of brain, liver, kidney tissue",[1]; mice of the in vivo studies,no gross pathology
same,reactive oxygen species (ROS) production,[2],induced reactive oxygen species (ROS) production
same,human OCL formation,[3],blocked human OCL formation dose dependently
same,growth of MM1.S myeloma cell line (result in words),[4]; FIG. 4A,directly inhibited
same,IC50,"[4]; Homo sapiens, MM1.S",6.19 µM
same,growth of CD138(+) primary myeloma cells (result in words),[5],directly inhibited
